# Tested on: lacto-N-biosidase
# Experiment: Substrate specificity of lacto-N-biosidase (hydrolysis of oligosaccharides, HPLC)
# Type: biochemical, Streptomyces sp 142
# Details: not given
# Experimental: Lacto-N-biosidase was assayed by being incubated for 20 min with the compound described by formula II below at the concentration of 2 μM at 37° C. in 10 μl of 100 mM potassium phosphate buffer, pH 6.0.
# wherein PA represents a pyridylamino residue. […] Then 40 μl of 1% trifluoroacetic acid was added to the reaction mixture to stop the reaction. A portion containing 10 pmol of PA-oligosaccharides was then analyzed by HPLC with an amino-silica column (Palpak Type N column, 4.6×250 mm, Takara Shuzo), and detected by fluorescence with the excitation and emission wavelengths of 310 and 380 nm, respectively. Elution was at the flow rate of 1.0 ml/min at 40° C. with a 70:30 (v/v) mixture of acetonitrile and 0.2M triethylamine acetate buffer, pH 7.3. The degree of hydrolysis was calculated from the peak areas of the substrate and the product, PA-lactose, in comparison with the peak area of the corresponding standard PA-oligosaccharide. One unit of activity was defined as the amount of enzyme needed to release 1 μmol of PA-lactose per minute under the conditions described above.
row,Molecule,products of hydrolysis by lacto-N-biosidase
1,CC(=O)N[C@H]1[C@H](O[C@@H]([C@H](O)[C@H](CNc2ccccn2)NC(C)=O)[C@H](O)CO)O[C@H](CO)[C@@H](O[C@@H]2O[C@H](CO[C@H]3O[C@H](CO)[C@@H](O)[C@H](O)[C@@H]3O[C@@H]3O[C@H](CO)[C@@H](O[C@@H]4O[C@H](CO)[C@H](O)[C@H](O)[C@H]4O)[C@H](O)[C@H]3NC(C)=O)[C@@H](O)[C@H](O[C@H]3O[C@H](CO)[C@@H](O[C@@H]4O[C@H](CO)[C@@H](O)[C@H](O[C@@H]5O[C@H](CO)[C@H](O)[C@H](O)[C@H]5O)[C@H]4NC(C)=O)[C@H](O)[C@@H]3O[C@@H]3O[C@H](CO)[C@@H](O[C@@H]4O[C@H](CO)[C@H](O)[C@H](O)[C@H]4O)[C@H](O)[C@H]3NC(C)=O)[C@@H]2O)[C@@H]1O [formula III],lacto-N-biose and the N-acetyllactosamine type of biantennary sugar chain
2,"CC(=O)N[C@H]1[C@H](Oc2ccc([N+](=O)[O-])cc2)O[C@H](CO)[C@@H](O)[C@@H]1O[C@@H]1O[C@H](CO)[C@H](O)[C@H](O)[C@H]1O [formula V, Galβ1--3GlcNAcβ1--p--nitrophenol]",lacto-N-biose and p-nitrophenol

# Same assay, conditions: oligosaccharides labelled with 2-aminopyridine
row,Molecule,hydrolysis by lacto-N-biosidase
1,CC(=O)N[C@H]1[C@H](O[C@H]2[C@@H](O)[C@@H](CO)O[C@@H](O[C@@H]([C@H](O)[C@@H](O)CNc3ccccn3)[C@H](O)CO)[C@@H]2O)O[C@H](CO)[C@@H](O)[C@@H]1O[C@@H]1O[C@H](CO)[C@H](O)[C@H](O)[C@H]1O[C@@H]1O[C@@H](C)[C@@H](O)[C@@H](O)[C@@H]1O,did not hydrolyze
2,CC(=O)N[C@H]1[C@H](O[C@H]2[C@@H](O)[C@@H](CO)O[C@@H](O[C@@H]([C@H](O)[C@@H](O)CNc3ccccn3)[C@H](O)CO)[C@@H]2O)O[C@H](CO)[C@@H](O[C@@H]2O[C@H](CO)[C@H](O)[C@H](O)[C@H]2O)[C@@H]1O,did not hydrolyze
3,CC(=O)N[C@H]1[C@H](O[C@H]2[C@@H](O)[C@@H](CO)O[C@@H](O[C@@H]([C@H](O)[C@@H](O)CNc3ccccn3)[C@H](O)CO)[C@@H]2O)O[C@H](CO)[C@@H](O)[C@@H]1O[C@@H]1O[C@H](CO)[C@H](O)[C@H](O)[C@H]1O,specifically hydrolyzed
4,CC(=O)N[C@H]1[C@H](O[C@@H]2[C@H](O)[C@@H](O)[C@H](O[C@@H]([C@H](O)[C@@H](O)CNc3ccccn3)[C@H](O)CO)O[C@@H]2CO)O[C@H](CO)[C@H](O)[C@@H]1O[C@@H]1O[C@H](CO)[C@H](O)[C@H](O)[C@H]1O [asialo GM1 tetrasaccharide],did not hydrolyze
5,CC(=O)N[C@H]1[C@H](O[C@H]2[C@@H](O)[C@@H](CO)O[C@@H](O[C@H]3[C@H](O)[C@@H](O)C(O)O[C@@H]3CO)[C@@H]2O)O[C@H](CO)[C@@H](O)[C@@H]1O (stereo partly drawn) [lacto-N-triose],did not hydrolyze
6,poly-N-acetyllactosamine,did not hydrolyze
7,sialyl lacto-N-tetraose,did not hydrolyze

# Tested on: lacto-N-biosidase
# Experiment: Structural analysis of reaction products of lacto-N-biosidase (Example 3)
# Type: biochemical, Streptomyces sp 142
# Details: about 100 nmol substrate, 0.6 mU enzyme, 60 h at 37° C., pH 6.0
# Experimental: To elucidate the reaction products of lacto-N-biosidase obtained by the method of example 1, the structures of the enzyme reaction products were analyzed in detail with the PA-oligosaccharide shown as formula VI below as the substrate. PA-oligosaccharide described by formula VI (about 100 nmol; Takara Shuzo Co.) mixed with lacto-N-biosidase (total, 0.6 mU) prepared as described in example 1 was digested for 60 h at 37° C. in a final volume of 360 μl containing 0.1M potassium phosphate buffer, pH 6.0. The reaction mixture was pyridylaminated by the method described in U.S. Pat. No. 4,975,533 and analyzed by HPLC with an amino-silica column. There were two peaks of PA-oligosaccharides: fractions 1 and 2. The elution position of fraction 1 was the same as that of the PA-oligosaccharide described by formula VII, and the elution position of fraction 2 was the same as that of PA-oligosaccharide described by formula VIII below. The amounts of these two products, calculated from the peak areas of fractions 1 and 2 , were identical to that of the PA-oligosaccharide substrate of formula VI.
row,Molecule,linkage cleaved by the enzyme reaction
1,CC(=O)N[C@H]1[C@H](O[C@@H]([C@H](O)[C@H](CNc2ccccn2)NC(C)=O)[C@H](O)CO)O[C@H](CO)[C@@H](O[C@@H]2O[C@H](CO[C@H]3O[C@H](CO)[C@@H](O)[C@H](O)[C@@H]3O[C@@H]3O[C@H](CO)[C@@H](O[C@@H]4O[C@H](CO)[C@H](O)[C@H](O)[C@H]4O)[C@H](O)[C@H]3NC(C)=O)[C@@H](O)[C@H](O[C@H]3O[C@H](CO)[C@@H](O[C@@H]4O[C@H](CO)[C@@H](O)[C@H](O[C@@H]5O[C@H](CO)[C@H](O)[C@H](O)[C@H]5O)[C@H]4NC(C)=O)[C@H](O)[C@@H]3O[C@@H]3O[C@H](CO)[C@@H](O[C@@H]4O[C@H](CO)[C@H](O)[C@H](O)[C@H]4O)[C@H](O)[C@H]3NC(C)=O)[C@@H]2O)[C@@H]1O [formula VI],only lacto-N-biosidic linkage in the substrate was cleaved

# Tested on: lacto-N-biosidase and α-1,3/4 fucosidase
# Experiment: Digestion with a mixture of lacto-N-biosidase and α-1,3/4 fucosidase
# Type: biochemical
# Details: lacto-N-biosidase plus α-1,3/4 fucosidase
# From the text: The method and the reagent of this invention can be used in studies done to identify type 1 structures in glycoconjugates, to distinguish type 1 oligosaccharides from type 2 oligosaccharides, and to elucidate the functions of lacto-N-biosyl residues in glycoconjugates. In particular, with its use, the Le^a structure can be easily distinguished from the Le^x structure by use of lacto-N-biosidase and α-1,3/4 fucosidase (Ogata-Arakawa et al., Arch. Biochem. Biophys. 181, 353, 1977; Scudder et al., J. Biol. Chem. 265, 16472, 1990; Sano et al., J. Biol. Chem. 267, 1522, 1992).
row,Molecule,product obtained on treatment with the mixture of the two enzymes
1,CC(=O)N[C@H]1[C@H](O[C@H]2[C@@H](O)[C@@H](CO)O[C@@H](O[C@@H]([C@H](O)[C@@H](O)CNc3ccccn3)[C@H](O)CO)[C@@H]2O)O[C@H](CO)[C@@H](O[C@@H]2O[C@H](CO)[C@H](O)[C@H](O)[C@H]2O)[C@@H]1O[C@@H]1O[C@@H](C)[C@@H](O)[C@@H](O)[C@@H]1O [PA-lacto-N-fucopentaose III],PA-lacto-N-neotetraose was obtained
2,CC(=O)N[C@H]1[C@H](O[C@H]2[C@@H](O)[C@@H](CO)O[C@@H](O[C@@H]([C@H](O)[C@@H](O)CNc3ccccn3)[C@H](O)CO)[C@@H]2O)O[C@H](CO)[C@@H](O[C@@H]2O[C@@H](C)[C@@H](O)[C@@H](O)[C@@H]2O)[C@@H]1O[C@@H]1O[C@H](CO)[C@H](O)[C@H](O)[C@H]1O [PA-lacto-N-fucopentaose II],PA-lactose was obtained

# — patent US5395757A, “Method for the hydrolysis of sugar compounds and reagent therefor” (Takara Shuzo Co., Ltd., priority 1991, dated 1995)
